These results are taken from paper PMC6407579, “New flavonoid – N,N-dibenzyl(N-methyl)amine hybrids: Multi-target-directed agents for Alzheimer´s disease endowed with neurogenic properties” (Journal of Enzyme Inhibition and Medicinal Chemistry, 2019).

The subject of series [1] is Aβ levels in cerebrospinal fluid. More on the design: method as in PMID 29719179. Particulars: cited from earlier work.
The target in another series is T1, recombinant hMAO-B (Homo sapiens, UniProt P27338).
T1 sequence (P27338 1-520): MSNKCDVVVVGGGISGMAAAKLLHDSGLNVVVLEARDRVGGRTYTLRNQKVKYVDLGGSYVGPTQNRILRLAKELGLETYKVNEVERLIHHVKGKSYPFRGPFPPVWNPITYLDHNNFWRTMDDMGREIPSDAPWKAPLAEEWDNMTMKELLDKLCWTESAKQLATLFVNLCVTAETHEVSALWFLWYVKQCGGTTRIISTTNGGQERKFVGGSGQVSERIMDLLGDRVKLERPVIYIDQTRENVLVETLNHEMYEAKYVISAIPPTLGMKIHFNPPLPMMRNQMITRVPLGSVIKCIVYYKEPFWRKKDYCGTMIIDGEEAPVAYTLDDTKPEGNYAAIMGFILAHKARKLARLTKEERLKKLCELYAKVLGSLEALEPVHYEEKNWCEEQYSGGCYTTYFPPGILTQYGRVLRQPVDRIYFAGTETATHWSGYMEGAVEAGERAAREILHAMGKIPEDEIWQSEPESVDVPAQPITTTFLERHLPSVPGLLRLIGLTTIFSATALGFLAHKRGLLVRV
Briefly: biochemical. Format: biochemical. The following applies: mean ± SEM (n = 3); 100 µM highest concentration tested.

The target of series [2] is T2, human recombinant AChE (hAChE) (Homo sapiens, UniProt P22303).
T2 construct: purchased Sigma Chemical Co
T2 sequence (P22303 32-614): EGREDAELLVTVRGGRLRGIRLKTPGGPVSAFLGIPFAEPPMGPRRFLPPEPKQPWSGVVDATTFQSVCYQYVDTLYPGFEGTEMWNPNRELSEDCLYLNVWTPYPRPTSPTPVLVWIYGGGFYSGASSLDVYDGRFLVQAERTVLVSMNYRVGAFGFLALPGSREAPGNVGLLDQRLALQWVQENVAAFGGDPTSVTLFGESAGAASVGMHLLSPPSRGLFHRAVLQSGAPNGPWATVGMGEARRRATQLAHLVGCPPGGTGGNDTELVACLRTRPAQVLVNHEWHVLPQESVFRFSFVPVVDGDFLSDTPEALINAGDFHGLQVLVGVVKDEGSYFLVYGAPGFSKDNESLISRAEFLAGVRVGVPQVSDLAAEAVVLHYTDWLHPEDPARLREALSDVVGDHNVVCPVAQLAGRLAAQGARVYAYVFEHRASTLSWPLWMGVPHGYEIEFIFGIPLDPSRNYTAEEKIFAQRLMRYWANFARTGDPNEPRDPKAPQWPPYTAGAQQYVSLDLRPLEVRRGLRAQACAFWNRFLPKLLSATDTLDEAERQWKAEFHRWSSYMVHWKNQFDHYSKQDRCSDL
Briefly: biochemical. The following applies: mean ± SEM (n = 3); read-out: hAChE IC50. The protocol:
The Ellman method was followed, using human recombinant AChE and BuChE from human serum. The assay solution consisted of 0.1 M phosphate buffer pH 8.0, 400 μM 5,5´-dithiobis(2-nitrobenzoic acid) (DTNB, Ellman’s reagent), 0.05 U/mL hAChE (Sigma Chemical Co.) or 0.024 U/mL hBuChE (Sigma Chemical Co.), and 800 μM acetylthiocholine iodide, or 500 μM butyrylthiocholine as the substrate of the enzymatic reaction, respectively. The compounds tested were added to the assay solution and preincubated with the enzyme for 5 min at 30 °C. After that period, the substrate was added.

A further series addresses T3, σ2R (Rattus norvegicus, UniProt Q5U3Y7).
T3 construct: 150 µg of rat liver homogenate were incubated; from tissue; host or cells: rat liver homogenate
T3 sequence (Q5U3Y7 1-176): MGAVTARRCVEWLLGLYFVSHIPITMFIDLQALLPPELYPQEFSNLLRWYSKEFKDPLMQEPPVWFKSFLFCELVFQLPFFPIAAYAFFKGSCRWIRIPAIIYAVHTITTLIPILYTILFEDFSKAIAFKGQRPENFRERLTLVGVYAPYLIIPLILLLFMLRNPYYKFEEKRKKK
Briefly: Sigma-2 receptor binding, [3H]-DTG competition.

Series [3] in a line: Oxygen radical absorbance capacity assay (ORAC). The following applies: trolox taken as 1.0.
The next series deals with T4, recombinant hMAO-A (Homo sapiens, UniProt P21397).
T4 sequence (P21397 1-527): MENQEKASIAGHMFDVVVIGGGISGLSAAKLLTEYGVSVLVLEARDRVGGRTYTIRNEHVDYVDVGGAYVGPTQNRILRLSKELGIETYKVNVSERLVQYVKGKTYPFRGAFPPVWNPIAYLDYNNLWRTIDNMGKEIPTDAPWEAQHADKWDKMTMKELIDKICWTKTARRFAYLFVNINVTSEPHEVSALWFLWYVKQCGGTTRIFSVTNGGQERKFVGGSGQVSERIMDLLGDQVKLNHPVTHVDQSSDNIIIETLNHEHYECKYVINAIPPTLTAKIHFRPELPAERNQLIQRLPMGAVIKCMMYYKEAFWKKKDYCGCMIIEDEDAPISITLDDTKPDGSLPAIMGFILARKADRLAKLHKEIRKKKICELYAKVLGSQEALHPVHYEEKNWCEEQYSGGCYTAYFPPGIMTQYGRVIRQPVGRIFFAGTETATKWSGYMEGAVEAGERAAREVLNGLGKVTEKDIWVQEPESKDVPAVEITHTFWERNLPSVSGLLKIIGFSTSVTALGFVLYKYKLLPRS
As to the kind of experiment: biochemical. The class given is biochemical.

The target in another series is T5, σ1R (Cavia porcellus, UniProt Q60492).
T5 construct: the thawed membrane preparation of guinea pig brain cortex; from tissue; host or cells: guinea pig brain cortex membranes
T5 sequence (Q60492 whole entry): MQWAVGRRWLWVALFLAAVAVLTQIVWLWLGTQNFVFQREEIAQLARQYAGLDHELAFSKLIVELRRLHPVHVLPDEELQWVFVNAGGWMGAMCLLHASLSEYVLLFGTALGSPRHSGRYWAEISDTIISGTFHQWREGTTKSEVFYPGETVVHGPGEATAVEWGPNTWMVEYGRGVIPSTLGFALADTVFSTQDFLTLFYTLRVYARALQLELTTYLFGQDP
As to the kind of experiment: Sigma-1 receptor binding, [3H]-(+)-pentazocine competition. Set-up: species or system guinea pig.

Series [4] can be described thus: In vitro blood-brain barrier permeation assay (PAMPA-BBB). Particulars: pig, pH 7.4, porcine brain lipid, PBS:ethanol (70:30), 25 °C, read-out: PAMPA-BBB permeability in the CNS (Pe). Format: in vitro ADME. How it is done:
Prediction of the brain penetration was evaluated using a parallel artificial membrane permeation assay (PAMPA-BBB), in a similar manner as previously described[36]^,[46]^,[51–53]. Pipetting was performed with a semi-automatic pipettor (CyBi®-SELMA) and UV reading with a microplate spectrophotometer (Multiskan Spectrum, Thermo Electron Co.). Commercial drugs, phosphate buffered saline solution at pH 7.4 (PBS), and dodecane were purchased from Sigma, Aldrich, Acros, and Fluka. Millex filter units (PVDF membrane, diameter 25 mm, pore size 0.45 μm) were acquired from Millipore. The porcine brain lipid (PBL) was obtained from Avanti Polar Lipids. The donor microplate was a 96-well filter plate (PVDF membrane, pore size 0.45 μm) and the acceptor microplate was an indented 96-well plate, both from Millipore. The acceptor 96-well microplate was filled with 200 μL of PBS: ethanol (70:30) and the filter surface of the donor microplate was impregnated with 5 μL of porcine brain lipid (PBL) in dodecane (20 mg mL^−1). Compounds were dissolved in PBS: ethanol (70:30) at 100 μg mL^−1, filtered through a Millex filter, and then added to the donor wells (200 μL). The donor filter plate was carefully put on the acceptor plate to form a sandwich, which was left undisturbed for 120 min at 25 °C. After incubation, the donor plate is carefully removed and the concentration of compounds in the acceptor wells was determined by UV-Vis spectroscopy. Every sample is analysed at five wavelengths, in four wells and at least in three independent runs, and the results are given as the mean ± standard deviation. In each experiment, 11 quality control standards of known BBB permeability were included to validate and normalise the analysis set.
To check if new compounds could be able to reach their CNS-targets, we used the in vitro parallel artificial membrane permeability assay for the blood-brain barrier (PAMPA-BBB) described by Di et al.[87], and partially modified by us for testing molecules with limited water-solubility[36]^,[46]^,[51–53]. The passive CNS-permeation of new compounds 1–13 through a lipid extract of porcine brain was measured at room temperature. In each experiment, 11 commercial drugs of known brain permeability were also tested and their permeability values normalised to the reported PAMPA-BBB data. […].

Where “and” joins values, the source holds several entries; their conditions need not be identical. Equal values may be shown once.

As usually defined, the IC50 is the concentration needed to halve the response being measured. A word on the Ki: it is the dissociation constant of the complex between target and ligand, obtained from inhibition or displacement.

With `CN1C(=N)N[C@](C)(c2cc(NC(=O)c3ccc(F)cn3)ccc2F)CS1(=O)=O` [verubecestat], in series [1], the “reduction of Aβ levels in cerebrospinal fluid” value is reported as “up to 81%”.
Consider `CN(Cc1ccccc1)Cc1ccc(NC(=O)c2cc(=O)c3c(O)cc(O)cc3o2)cc1` [Compound 4, N-(4-((Benzyl(methyl)amino)methyl)phenyl)-5,7-dihydroxy-4-oxo-4H-chromene-2-carboxamide], for which the IC50 at recombinant hMAO-B was over 100000 nM; in series [2], 1900 ± 600 nM; at recombinant hMAO-A (mean ± SEM (n = 3), 100 µM highest concentration tested), 22800 ± 1500 nM. Further, the Ki on σ2R is over 3000 nM; at σ1R, 510 ± 70 nM. Further, the “ORAC, trolox equivalents” value in series [3] was 1.2 mmol of trolox/mmol of tested compound and 1.2 ± 0.1 mmol of trolox/mmol of tested compound. For the same compound, on recombinant hMAO-A, the “preference for hMAO-A compared to hMAO-B” value is “at least 4.4 times”. Further, the “Selectivity vs. σ1R (Kiσ2R/Kiσ1R)” value on σ1R was over 5.9. Besides, the Papp at 120 min, 100 μg mL^−1 in series [4] was determined as 14.7 ± 1.2 ×10⁻⁶ cm/s.
